This is an account of results in patent publication US20250206732A1, “COMPOUNDS AND METHODS FOR THE TARGETED DEGRADATION OF KRAS” (Arvinas Operations, Inc., priority 2022, published 2025).

This assay concerns the target T1, AsPC-1 HiBiT-KRASG12D (Homo sapiens, UniProt P01116, G12D).
T1 construct: insert the HiBiT tag onto the N-terminus of one or more of the endogenous KRAS alleles; endogenous in cells; host or cells: AsPC-1 (ATCC CRL-1682), CRISPR-Cas9 knock-in clone, one tagged allele
Kind of assay: HiBiT degradation assay (G12D), AsPC-1 HiBiT-KRASG12D cells. It counts as cell-based. As to conditions: 24 hours treatment; for Dmax: ASPC1, AsPC-1 HiBiT-KRASG12D cells, maximum degradation observed; for DC50: AsPC-1 HiBiT-KRASG12D cells, HiBiT luminescence. The method, boiled down: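 AsPC-1 cells (homozygous G12D) carrying a CRISPR knock-in N-terminal HiBiT tag on endogenous KRAS were treated with compounds for 24 hours at 37° C, 5% CO2, in triplicate. Alamar blue viability was read first, then cells were washed and lysed with Nano-Glo HiBiT reagent for 45 minutes before luminescence reading.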
Background: HiBiT is a short tag that completes a luciferase, so light tracks the accessible tagged protein.

T1 sequence (P01116 1-188 isoform P01116-2 G12D): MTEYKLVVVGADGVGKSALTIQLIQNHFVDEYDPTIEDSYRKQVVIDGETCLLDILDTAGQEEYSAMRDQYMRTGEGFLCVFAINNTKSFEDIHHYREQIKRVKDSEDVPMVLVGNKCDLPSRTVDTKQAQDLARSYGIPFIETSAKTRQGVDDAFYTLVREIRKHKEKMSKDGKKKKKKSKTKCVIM

`CCc1cccc2cc(O)cc(-c3ncc4c(N5CC6CCC(C5)N6)nc(OC[C@@]56CCCN5[C@@H](COC(=O)N5CCN(c7cc([C@H](C(=O)N8C[C@H](O)C[C@H]8C(=O)N[C@@H](C)c8ccc(-c9scnc9C)cc8)C(C)C)on7)CC5)CC6)nc4c3F)c12` [Compound 106, [(3R,7aS)-7a-{[(4-{3,8-diazabicyclo[3.2.1]octan-3-yl}-7-(8-ethyl-3-hydroxynaphthalen-1-yl)-8-fluoropyrido[4,3-d]pyrimidin-2-yl)oxy]methyl}-hexahydro-1H-pyrrolizin-3-yl]methyl 4-{5-[(2R)-1-[(2S,4R)-4-hydroxy-2-{[(1S)-1-[4-(4-methyl-1,3-thiazol-5-yl)phenyl]ethyl]carbamoyl}pyrrolidin-1-yl]-3-methyl-1-oxobutan-2-yl]-1,2-oxazol-3-yl}piperazine-1-carboxylate]: the Dmax was in the range of 80 to 100% and the 50% degradation concentration (DC50) was below 600 nM.
For `CCc1cccc2cc(O)cc(-c3ncc4c(N5CC6CCC(C5)N6)nc(OC[C@]56CCCN5[C@H](CN5CCC(COc7cc([C@H](C(=O)N8C[C@H](O)C[C@H]8C(=O)N[C@@H](C)c8ccc(-c9scnc9C)cc8)C(C)C)on7)CC5)CC6)nc4c3F)c12` [Compound 111, (2S,4R)-1-[(2R)-2-{3-[(1-{[(3S,7aR)-7a-{[(4-{3,8-diazabicyclo[3.2.1]octan-3-yl}-7-(8-ethyl-3-hydroxynaphthalen-1-yl)-8-fluoropyrido[4,3-d]pyrimidin-2-yl)oxy]methyl}-hexahydro-1H-pyrrolizin-3-yl]methyl}piperidin-4-yl)methoxy]-1,2-oxazol-5-yl}-3-methylbutanoyl]-4-hydroxy-N-[(1S)-1-[4-(4-methyl-1,3-thiazol-5-yl)phenyl]ethyl]pyrrolidine-2-carboxamide], in that order: 80 to 100% and below 600 nM.
The compound `CCc1cccc2cc(O)cc(-c3ncc4c(N5CC6CCC(C5)N6)nc(OC[C@@]56CCCN5[C@H](COC(=O)N5CC7(C5)CN(c5cc([C@H](C(=O)N8C[C@H](O)C[C@H]8C(=O)N[C@@H](C)c8ccc(-c9scnc9C)cc8)C(C)C)on5)C7)CC6)nc4c3F)c12` [Compound 112, [(3S,7aS)-7a-{[(4-{3,8-diazabicyclo[3.2.1]octan-3-yl}-7-(8-ethyl-3-hydroxynaphthalen-1-yl)-8-fluoropyrido[4,3-d]pyrimidin-2-yl)oxy]methyl}-hexahydro-1H-pyrrolizin-3-yl]methyl 6-{5-[(2R)-1-[(2S,4R)-4-hydroxy-2-{[(1S)-1-[4-(4-methyl-1,3-thiazol-5-yl)phenyl]ethyl]carbamoyl}pyrrolidin-1-yl]-3-methyl-1-oxobutan-2-yl]-1,2-oxazol-3-yl}-2,6-diazaspiro[3.3]heptane-2-carboxylate] had a Dmax of 80 to 100% and a DC50 below 600 nM.
In the case of `CCc1cccc2cc(O)cc(-c3ncc4c(N5CC6CCC(C5)N6)nc(OC[C@@]56CCCN5[C@H](COC(=O)N5CC7(C5)CN(c5cc([C@@H](C(=O)N8C[C@H](O)C[C@H]8C(=O)N[C@@H](C)c8ccc(-c9scnc9C)cc8)C(C)C)on5)C7)CC6)nc4c3F)c12` [Compound 113, [(3S,7aS)-7a-{[(4-{3,8-diazabicyclo[3.2.1]octan-3-yl}-7-(8-ethyl-3-hydroxynaphthalen-1-yl)-8-fluoropyrido[4,3-d]pyrimidin-2-yl)oxy]methyl}-hexahydro-1H-pyrrolizin-3-yl]methyl 6-{5-[(2S)-1-[(2S,4R)-4-hydroxy-2-{[(1S)-1-[4-(4-methyl-1,3-thiazol-5-yl)phenyl]ethyl]carbamoyl}pyrrolidin-1-yl]-3-methyl-1-oxobutan-2-yl]-1,2-oxazol-3-yl}-2,6-diazaspiro[3.3]heptane-2-carboxylate], the Dmax is 20 to 60% and the DC50 was below 600 nM.
Turning to `CCc1cccc2cc(O)cc(-c3ncc4c(N5CC6CCC(C5)N6)nc(OC[C@@]56CCCN5[C@H](COC(=O)N5CC(COc7cc([C@H](C(=O)N8C[C@H](O)C[C@H]8C(=O)N[C@@H](C)c8ccc(-c9scnc9C)cc8)C(C)C)on7)C5)CC6)nc4c3F)c12` [Compound 114, [(3S,7aS)-7a-{[(4-{3,8-diazabicyclo[3.2.1]octan-3-yl}-7-(8-ethyl-3-hydroxynaphthalen-1-yl)-8-fluoropyrido[4,3-d]pyrimidin-2-yl)oxy]methyl}-hexahydro-1H-pyrrolizin-3-yl]methyl 3-[({5-[(2R)-1-[(2S,4R)-4-hydroxy-2-{[(1S)-1-[4-(4-methyl-1,3-thiazol-5-yl)phenyl]ethyl]carbamoyl}pyrrolidin-1-yl]-3-methyl-1-oxobutan-2-yl]-1,2-oxazol-3-yl}oxy)methyl]azetidine-1-carboxylate], the maximal degradation (Dmax) lay within 80 to 100% and the half-maximal degradation concentration (DC50) was below 600 nM.
In turn, `CCc1cccc2cc(O)cc(-c3ncc4c(N5CC6CCC(C5)N6)nc(OC[C@@]56CCCN5[C@H](COC(=O)N5CC(COc7cc([C@@H](C(=O)N8C[C@H](O)C[C@H]8C(=O)N[C@@H](C)c8ccc(-c9scnc9C)cc8)C(C)C)on7)C5)CC6)nc4c3F)c12` [Compound 115, [(3S,7aS)-7a-{[(4-{3,8-diazabicyclo[3.2.1]octan-3-yl}-7-(8-ethyl-3-hydroxynaphthalen-1-yl)-8-fluoropyrido[4,3-d]pyrimidin-2-yl)oxy]methyl}-hexahydro-1H-pyrrolizin-3-yl]methyl 3-[({5-[(2S)-1-[(2S,4R)-4-hydroxy-2-{[(1S)-1-[4-(4-methyl-1,3-thiazol-5-yl)phenyl]ethyl]carbamoyl}pyrrolidin-1-yl]-3-methyl-1-oxobutan-2-yl]-1,2-oxazol-3-yl}oxy)methyl]azetidine-1-carboxylate] showed a maximal degradation (Dmax) of 20 to 60% and a 50% degradation concentration (DC50) of 600 to 1000 nM.
For `CCc1cccc2cc(O)cc(-c3ncc4c(N5CC6CCC(C5)N6)nc(OC[C@]56CCCN5[C@H](COC(=O)N5CCC(Oc7cc([C@H](C(=O)N8C[C@H](O)C[C@H]8C(=O)N[C@@H](C)c8ccc(-c9scnc9C)cc8)C(C)C)on7)CC5)CC6)nc4c3F)c12` [Compound 116, [(3S,7aR)-7a-{[(4-{3,8-diazabicyclo[3.2.1]octan-3-yl}-7-(8-ethyl-3-hydroxynaphthalen-1-yl)-8-fluoropyrido[4,3-d]pyrimidin-2-yl)oxy]methyl}-hexahydro-1H-pyrrolizin-3-yl]methyl 4-({5-[(2R)-1-[(2S,4R)-4-hydroxy-2-{[(1S)-1-[4-(4-methyl-1,3-thiazol-5-yl)phenyl]ethyl]carbamoyl}pyrrolidin-1-yl]-3-methyl-1-oxobutan-2-yl]-1,2-oxazol-3-yl}oxy)piperidine-1-carboxylate], in that order: 80 to 100% and below 600 nM.
For `CCc1cccc2cc(O)cc(-c3ncc4c(N5CC6CCC(C5)N6)nc(OC[C@@]56CCCN5[C@H](COC(=O)N5CCC(Oc7cc([C@H](C(=O)N8C[C@H](O)C[C@H]8C(=O)N[C@@H](C)c8ccc(-c9scnc9C)cc8)C(C)C)on7)CC5)CC6)nc4c3F)c12` [Compound 117, [(3S,7aS)-7a-{[(4-{3,8-diazabicyclo[3.2.1]octan-3-yl}-7-(8-ethyl-3-hydroxynaphthalen-1-yl)-8-fluoropyrido[4,3-d]pyrimidin-2-yl)oxy]methyl}-hexahydro-1H-pyrrolizin-3-yl]methyl 4-({5-[(2R)-1-[(2S,4R)-4-hydroxy-2-{[(1S)-1-[4-(4-methyl-1,3-thiazol-5-yl)phenyl]ethyl]carbamoyl}pyrrolidin-1-yl]-3-methyl-1-oxobutan-2-yl]-1,2-oxazol-3-yl}oxy)piperidine-1-carboxylate], in that order: 80 to 100% and below 600 nM.
Regarding `CCc1cccc2cc(O)cc(-c3ncc4c(N5CC6CCC(C5)N6)nc(OC[C@@]56CCCN5[C@H](COC(=O)N5CCC(Oc7cc([C@@H](C(=O)N8C[C@H](O)C[C@H]8C(=O)N[C@@H](C)c8ccc(-c9scnc9C)cc8)C(C)C)on7)CC5)CC6)nc4c3F)c12` [Compound 118, [(3S,7aS)-7a-{[(4-{3,8-diazabicyclo[3.2.1]octan-3-yl}-7-(8-ethyl-3-hydroxynaphthalen-1-yl)-8-fluoropyrido[4,3-d]pyrimidin-2-yl)oxy]methyl}-hexahydro-1H-pyrrolizin-3-yl]methyl 4-({5-[(2S)-1-[(2S,4R)-4-hydroxy-2-{[(1S)-1-[4-(4-methyl-1,3-thiazol-5-yl)phenyl]ethyl]carbamoyl}pyrrolidin-1-yl]-3-methyl-1-oxobutan-2-yl]-1,2-oxazol-3-yl}oxy)piperidine-1-carboxylate], the maximal degradation (Dmax) was 20 to 60% and the DC50 fell in the range of 600 to 1000 nM.
`CCc1cccc2cc(O)cc(-c3ncc4c(N5CC6CCC(C5)N6)nc(OC[C@]56CCCN5[C@H](COC(=O)N5CCC(Oc7cc([C@@H](C(=O)N8C[C@H](O)C[C@H]8C(=O)N[C@@H](C)c8ccc(-c9scnc9C)cc8)C(C)C)on7)CC5)CC6)nc4c3F)c12` [Compound 119, [(3S,7aR)-7a-{[(4-{3,8-diazabicyclo[3.2.1]octan-3-yl}-7-(8-ethyl-3-hydroxynaphthalen-1-yl)-8-fluoropyrido[4,3-d]pyrimidin-2-yl)oxy]methyl}-hexahydro-1H-pyrrolizin-3-yl]methyl 4-({5-[(2S)-1-[(2S,4R)-4-hydroxy-2-{[(1S)-1-[4-(4-methyl-1,3-thiazol-5-yl)phenyl]ethyl]carbamoyl}pyrrolidin-1-yl]-3-methyl-1-oxobutan-2-yl]-1,2-oxazol-3-yl}oxy)piperidine-1-carboxylate] displayed a Dmax of 20 to 60% and a DC50 below 600 nM.

What is called Dmax is the greatest extent of degradation seen. As a reminder, the DC50 is the concentration at which degradation of the target reaches its halfway point. A higher DC50 goes with degradation only at high concentration.
